The record followed here is patent publication US6001849A, “Furopyridine, thienopyridine pyrrolopyridine useful in controlling chemical synaptic transmission” (Abbott Laboratories, priority 1997, dated 1999).

pKi: −log10 of the molar value. Counter-ions that a name gives are not always drawn.

Test [1] concerns neuronal nicotinic acetylcholine receptors in IMR-32 cells. Put plainly: 86Rb+ efflux assay in IMR-32 neuroblastoma cells. The note with it: Table 1; for IMR-32 % max: maximal response, percent relative to 100 μM (S)-nicotine; for IMR-32 % Inhibition @ 10 μM: inhibition of efflux elicited by 100 μM (S)-nicotine. The format is cell-based, human. The protocol: (§1) B. Protocols for the Determination of Functional Effects of Nicotinic Acetylcholine Receptor Ligands on Synaptic Transmission
Experimental cells were seeded at a density of 500,000 cells/mL into a 24-well tissue culture dish. Plated cells were allowed to proliferate for at least 48 hours before loading with 2 μCi/mL of ^86 Rb^+ (35 Ci/mmol) overnigh at 37° C.

Test [2] has as its target neuronal nicotinic acetylcholine receptors. Put plainly: [3H]-cytisine ligand-receptor binding assay (crude synaptic membranes from whole rat brain). The note with it: Table 1; [3H]-cytisine 1.25 nM, 4° C., 60 min; Ki by Cheng and Prusoff; read-out: [^3 H]-Cyt Binding. On the procedure:
For the purpose of identifying compounds as nicotinic acetylcholinergic agents which are capable of interacting with neuronal nicotinic acetylcholine receptors in the brain, a ligand-receptor binding assay was carried out as the initial screen. Compounds of the present invention were effective at interacting with neuronal nicotinic acetylcholine receptors as assayed for their ability to displace radioligand from neuronal nicotinic acetylcholine receptors labeled with [^3 H]-cytisine ([^3 H]-CYT).
A. Protocol For Determination of Nicotinic Acetylcholine Receptor Binding Potencies of Ligands
Binding of [^3 H]-CYT to nicotinic acetylcholine receptors was accomplished using crude synaptic membrane preparations from whole rat brain (Pabreza et al., Molecular Pharmacol., 1990, 39:9). Washed membranes were stored at -80° C. prior to use. Frozen aliquots were slowly thawed and resuspended in 20 volumes of buffer (containing: 120 mM NaCl, 5 mM KCl, 2 mM MgCl2, 2 mM CaCl2 and 50 mM Tris-Cl, pH 7.4 @4° C.). After centrifuging at 20,000×g for 15 minutes, the pellets were resuspended in 30 volumes of buffer. Homogenate (containing 125-150 μg protein) was added to triplicate tubes containing concentrations of test compound and [^3 H]-CYT (1.25 nM) in a final volume of 500 μL. Samples were incubated for 60 minutes at 4° C., then rapidly filtered through Whatman GF/B filters presoaked in 0.5% polyethylimine using 3×4 mL of ice-cold buffer. The filters were counted in 4 mL of Ecolume® (ICN). Nonspecific binding was determined in the presence of 10 μM (-)-nicotine and values were expressed as a percentage of total binding.

For test [3], the target named is T1, α4 and β2 nicotinic acetylcholine subunits (K177 cells) (Homo sapiens, UniProt P17787+P43681).
T1 construct: expressed in transfected cells
T1 sequence (P43681 29-627 limits assumed): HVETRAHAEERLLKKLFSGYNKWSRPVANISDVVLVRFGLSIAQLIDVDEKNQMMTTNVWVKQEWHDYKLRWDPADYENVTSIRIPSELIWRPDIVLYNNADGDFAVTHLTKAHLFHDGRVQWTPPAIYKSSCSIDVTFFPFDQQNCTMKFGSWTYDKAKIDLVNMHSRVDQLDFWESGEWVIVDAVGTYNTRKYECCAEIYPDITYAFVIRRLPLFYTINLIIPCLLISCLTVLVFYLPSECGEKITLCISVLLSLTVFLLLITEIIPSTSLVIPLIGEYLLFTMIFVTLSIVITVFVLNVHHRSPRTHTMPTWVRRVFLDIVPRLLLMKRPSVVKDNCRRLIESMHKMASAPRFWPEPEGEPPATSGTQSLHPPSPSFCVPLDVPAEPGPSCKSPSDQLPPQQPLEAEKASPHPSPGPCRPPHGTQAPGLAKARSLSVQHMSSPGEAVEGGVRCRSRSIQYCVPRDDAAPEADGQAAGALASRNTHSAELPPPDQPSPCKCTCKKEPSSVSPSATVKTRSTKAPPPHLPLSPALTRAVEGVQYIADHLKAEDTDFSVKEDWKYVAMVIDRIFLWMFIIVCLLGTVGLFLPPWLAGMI
T1 sequence (P17787 26-502): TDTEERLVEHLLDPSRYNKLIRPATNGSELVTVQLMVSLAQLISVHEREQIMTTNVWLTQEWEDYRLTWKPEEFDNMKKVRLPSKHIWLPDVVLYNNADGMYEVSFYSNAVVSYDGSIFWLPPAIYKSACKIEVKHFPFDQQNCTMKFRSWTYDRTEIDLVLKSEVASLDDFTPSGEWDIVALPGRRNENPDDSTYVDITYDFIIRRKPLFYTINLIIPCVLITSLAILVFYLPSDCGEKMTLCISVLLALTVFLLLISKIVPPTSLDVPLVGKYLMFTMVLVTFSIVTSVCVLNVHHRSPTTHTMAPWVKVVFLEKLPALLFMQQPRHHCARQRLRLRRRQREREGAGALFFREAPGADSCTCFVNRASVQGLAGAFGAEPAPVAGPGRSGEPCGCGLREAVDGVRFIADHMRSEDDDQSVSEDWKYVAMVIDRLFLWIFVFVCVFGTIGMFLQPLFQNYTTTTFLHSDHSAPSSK
The experiment in a line: 86Rb+ efflux assay in K177 cells (HEK 293 stably transfected with α4 and β2 nicotinic acetylcholine subunits). It counts as cell-based. The note with it: K177, Table 1; for Emax: maximal response, percent relative to 100 μM (S)-nicotine, read-out: K177 % max. On the procedure: as §1
Cells of the IMR-32 human neuroblastoma clonal cell line (ATCC, Rockville, Md.) were maintained in a log phase of growth according to established procedures (Lukas, R. J., J. Pharmacol. Exp. Ther., 265: 294-302, 1993). Experimental cells were seeded at a density of 500,000 cells/mL into a 24-well tissue culture dish. Plated cells were allowed to proliferate for at least 48 hours before loading with 2 μCi/mL of ^86 Rb^+ (35 Ci/mmol) overnigh at 37° C. The ^86 Rb^+ efflux assays were performed according to previously published protocols (Lukas, 1993) except serum-free Dulbecco's Modified Eagle's Medium was used during the ^86 Rb^+ loading, rinsing, and agonist-induced efflux steps.
Cells of the K177 cell line, resulting from stable transfection of the human embryonic kidney (HEK) 293 cell line with the cDNA of the α4 and β2 nicotinic acetylcholine subunits (Gopalakrishnan, et al, J. Pharmacol. Expt. Ther. 1996, 276, 289-297), were maintained in a log phase of growth according to established procedures (Gopalakrishnan, et al., loc. cit.). The cells were plated onto poly-lysine coated 24-well Costar plates (Cambridge, Mass.) at a density of 250,000 cells/well. When confluent, the cells were loaded with ^86 Rb^+ and agonist-induced efflux was assessed as reported above for IMR-32 cells.
Maximal responses (reported as percent relative to the response elicited by 100 μM (S)-nicotine) are shown for selected compounds of the invention. The inhibition data (given for other selected compounds) reflect inhibition of the efflux elicited by 100 μM (S)-nicotine at the indicated concentration. […] This finding is in agreement with the results of others who have linked dopamine release, which is dependent upon the ion flux in synaptic transmission, to binding at nicotinic receptors (cf., for example, Lippiello and Caldwell, U.S. Pat. No. 5,242,935, issued Sept. 7, 1993; Caldwell and Lippielo, U.S. Pat. No. 5,248,690, issued Sept. 28, 1993; and Wonnacott et al., Prog. Brain Res; 79: 157-163 (1989)).

In the case of `c1cnc2cc([C@H]3C[C@@H]4CC[C@H]3N4)oc2c1` (relative stereo) [Example 52, (±)-2-(7-aza-2-exo-bicyclo[2.2.1]heptyl)furo[3,2-b]pyridine dihydrochloride], the IMR-32 % max in test [1] came out at 69%. Besides, the pKi in test [2] is 9.07. For the same compound, in test [3], the Emax was determined as 36%.

In test [1], `Cl.Cl.c1cnc2cc([C@H]3CCCN3)oc2c1` [Example 3, 2-(2-(R)-pyrrolidinyl)furo[3,2-b]pyridine dihydrochloride] registered an IMR-32 % max of 58%. Besides, in test [2], the pKi is 8.39. Besides, the Emax in test [3] stood at 34%.

The inhibition is the change of the read-out against control, counted positive when it falls. For `Cc1ccc2oc([C@H]3CCCN3)cc2n1.Cl` [Example 29, 5-methyl-2-(2-(R)-pyrrolidinyl)-furo[3,2-b]pyridine hydrochloride], the “IMR-32 % Inhibition @ 10 μM” value in test [1] worked out at 0%. Further, in test [2], the pKi was 8.17. Further, the inhibition at 10 µM in test [3] (inhibition of efflux elicited by 100 μM (S)-nicotine, 10 μM, read-out: K177 % Inhibition @ 10 μM) stood at 28%. Besides, the Emax in test [3] was found to be 0%.

Consider `Cc1ccc2oc(C34CCCN3CCC4)cc2n1` [Example 16, 2-(Hexahydro-1H-7a-pyrrolizinyl)-5-methylfuro[3,2-b]pyridinedihydrochloride], for which, in test [1], the “IMR-32 % Inhibition @ 10 μM” value worked out at 10% and the IMR-32 % max is given as 0%. Moreover, the pKi in test [2] was 8.24. In addition, in test [3], the Emax is 109%.
